test system: circBRIP1 in HCT116 cells; experiment: DHX9 circBRIP1 cellular target engagement SYBR Green assay (qPCR); type: cell-based; conditions: Homo sapiens, HCT-116, circBRIP1, HCT116 cells; SyBr assay (marked ^+); read-out: DHX9 Cellular Target Engagement EC50

Structure (SMILES)	EC50 [nM]
CS(=O)(=O)Nc1cc(Cl)cc(NC(=O)c2cccc(-c3ccnc(Cl)c3)c2)c1 [Example 102, N-(3-chloro-5-(methylsulfonamido)phenyl)-3-(2-chloropyridin-4-yl)benzamide]	> 30000
CN1CCN(c2cnc(-n3cc(C(=O)Nc4cc(Cl)cc(NS(C)(=O)=O)c4)cn3)cn2)CC1=O [Example 184]	> 10000
CS(=O)(=O)Nc1cc(Cl)cc(NC(=O)c2cc3c(C(F)(F)F)cccc3s2)c1 [Example 323]	> 10000
CS(=O)(=O)Nc1cc(Cl)cc(NC(=O)c2cnn(-c3ncccc3-c3cncnc3)c2)c1 [Example 387]	> 10000
CC(=O)NC1CC2(C1)CC(n1cc(C(=O)Nc3cc(Cl)cc(NS(C)(=O)=O)c3)cn1)C2 (centres unmarked) [Example 310]	> 10000
CS(=O)(=O)Nc1cc(Cl)cc(NC(=O)c2cc3cccc(F)c3s2)c1 [Example 297]	> 10000
CS(=O)(=O)Nc1cc(Cl)cc(NC(=O)c2cc(C(=O)Nc3ccccc3)cs2)c1 [Example 166, N2-(3-chloro-5-(methylsulfonamido)phenyl)-N4-phenylthiophene-2,4-dicarboxamide]	2390
CC(=O)N1CCN(c2ccc(-n3cc(C(=O)Nc4cc(Br)cc(NS(C)(=O)=O)c4)cn3)nc2)CC1 [Example 86, 1-(5-(4-acetylpiperazin-1-yl)pyridin-2-yl)-N-(3-bromo-5-(methylsulfonamido)phenyl)-1H-pyrazole-4-carboxamide]	585
Cc1cccnc1-c1nc(C(=O)Nc2cc(Cl)cc(NS(C)(=O)=O)c2)cn1C [Example 156]	> 10000
CS(=O)(=O)Nc1cc(Cl)cc(NC(=O)c2cc(C3CCNCC3)cs2)c1 [Example 243]	> 10000
CS(=O)(=O)Nc1cc(Cl)cc(NC(=O)c2cnn([C@H]3CC[C@@H](O)CC3)c2)c1 [Example 151, N-(3-chloro-5-(methylsulfonamido)phenyl)-1-((1s,4s)-4-hydroxycyclohexyl)-1H-pyrazole-4-carboxamide]	> 10000
COc1cccc2cc(C(=O)Nc3cc(Cl)cc(NS(C)(=O)=O)c3)sc12 [Example 303]	> 10000
CS(=O)(=O)Nc1cc(F)cc(NC(=O)c2cc(-c3ccccc3)cs2)c1 [Example 73]	11200
CS(=O)(=O)Nc1cc(Cl)cc(NC(=O)c2cnn(CCO)c2)c1 [Example 127]	> 10000
CC(=O)N1CC2(CC(n3cc(C(=O)Nc4cc(Cl)cc(NS(C)(=O)=O)c4)cn3)C2)C1 [Example 313]	> 10000
CC(c1ccccc1)n1cc(C(=O)Nc2cc(Cl)cc(NS(C)(=O)=O)c2)cn1 (centres unmarked) [Example 142, N-(3-chloro-5-(methylsulfonamido)phenyl)-1-(1-phenylethyl)-1H-pyrazole-4-carboxamide]	> 10000
CS(=O)(=O)Nc1cc(Cl)cc(NC(=O)c2cc3ccc(Cl)cn3c2)c1 [Example 299]	> 10000

The remaining lines, values ahead:

EC50 [nM]	Structure (SMILES)
9340	CS(=O)(=O)Nc1cc(Cl)cc(NC(=O)c2c[nH]c(-c3ccccc3)n2)c1 [Example 6]
7970	CS(=O)(=O)Nc1cc(Cl)cc(NC(=O)c2cccc(-c3cccc(C#N)c3)c2)c1 [Example 13]
7250	CS(=O)(=O)Nc1cc(Cl)cc(NC(=O)c2cc3ccncc3s2)c1 [Example 230]
6730	CS(=O)(=O)Nc1cc(Cl)cc(NC(=O)c2cnn(-c3ncccc3Oc3ncccn3)c2)c1 [Example 196]
6550	CS(=O)(=O)Nc1cc(Cl)cc(NC(=O)c2cc3ncccc3s2)c1 [Example 289]
4920	CS(=O)(=O)Nc1cc(Cl)cc(NC(=O)c2cnn(C3CCN(CC(F)(F)F)CC3)c2)c1 [Example 316]
4650	CS(=O)(=O)Nc1cc(Cl)cc(NC(=O)c2cnn(-c3ccccc3Oc3cccc(F)c3)c2)c1 [Example 265]
4340	CC(=O)N1CCN(c2ccnc(-n3cc(C(=O)Nc4cc(Cl)cc(NS(C)(=O)=O)c4)cn3)c2)CC1 [Example 148, 1-[4-(4-acetylpiperazin-1-yl)pyridin-2-yl]-N-(3-chloro-5-methanesulfonamidophenyl)-1H-pyrazole-4-carboxamide]
3610	Cn1cc(C(=O)Nc2cc(Cl)cc(NS(C)(=O)=O)c2)nc1-c1ccccc1 [Example 155, N-(3-chloro-5-(methylsulfonamido)phenyl)-1-methyl-2-phenyl-1H-imidazole-4-carboxamide]
3600	CS(=O)(=O)Nc1cc(Cl)cc(NC(=O)c2cnn(-c3ccc(N4CCn5ccnc5C4)cn3)c2)c1 [Example 192]
3540	CS(=O)(=O)Nc1cc(Cl)cc(NC(=O)c2cnn(-c3ccccc3Oc3cccnc3)c2)c1 [Example 264]
3460	CS(=O)(=O)Nc1cc(Cl)cc(NC(=O)c2cc3ccccn3c2)c1 [Example 209]
3330	CS(=O)(=O)Nc1cc(Cl)cc(NC(=O)c2cc3c(F)cccn3c2)c1 [Example 305]
2930	CS(=O)(=O)Nc1cc(Br)cc(NC(=O)c2cccc(-n3cccn3)c2)c1 [Example 118]
2430	CS(=O)(=O)Nc1cc(Cl)cc(NC(=O)c2cnn(-c3ncccc3OCc3ccccn3)c2)c1 [Example 63]
2090	CS(=O)(=O)Nc1cc(Cl)cc(NC(=O)c2cc(CN)n(-c3ccccn3)c2)c1 [Example 181]
1800	CC(C)C(=O)N1CCN(c2ccc(-n3cc(C(=O)Nc4cc(Cl)cc(NS(C)(=O)=O)c4)cn3)nc2)CC1 [Example 149, N-(3-chloro-5-(methylsulfonamido)phenyl)-1-(5-(4-isobutyrylpiperazin-1-yl)pyridin-2-yl)-1H-pyrazole-4-carboxamide]
1420	CS(=O)(=O)Nc1cc(Br)cc(NC(=O)c2cnn(-c3ccccc3CO)c2)c1 [Example 161, N-(3-bromo-5-(methylsulfonamido)phenyl)-1-(2-(hydroxymethyl)phenyl)-1H-pyrazole-4-carboxamide]

EC50 [nM]	Structure (SMILES)
1410	CS(=O)(=O)Nc1cc(Br)cc(NC(=O)c2cnn(C3CCCCC3)c2)c1 [Example 48]
1410	CS(=O)(=O)Nc1cc(Br)cc(NC(=O)c2cnn(-c3ccccc3C=O)c2)c1 [Example 58]
1390	CSc1ccc(-n2cc(C(=O)Nc3cc(Cl)cc(NS(C)(=O)=O)c3)cn2)nc1 [Example 218]
1310	CN(C)S(=O)(=O)c1ccc(-n2cc(C(=O)Nc3cc(Cl)cc(NS(C)(=O)=O)c3)cn2)nc1 [Example 200]
1200	CS(=O)(=O)Nc1cc(Cl)cc(NC(=O)c2cnn(-c3ccc(N4CCOCC4=O)cn3)c2)c1 [Example 180]
895	CS(=O)(=O)Nc1cc(Br)cc(NC(=O)c2cnn(-c3ncccn3)c2)c1 [Example 50, N-(3-bromo-5-(methylsulfonamido)phenyl)-1-(pyrimidin-2-yl)-1H-pyrazole-4-carboxamide]
841	CS(=O)(=O)Nc1cc(Cl)cc(NC(=O)c2cnn(-c3ncccc3OCc3nccs3)c2)c1 [Example 205]
834	CS(=O)(=O)Nc1cc(Cl)cc(NC(=O)c2cnn(-c3cc(N4CCNCC4)ccn3)c2)c1 [Example 147]
687	CS(=O)(=O)Nc1cc(Br)cc(NC(=O)c2cc(-c3ccccc3OCc3ccccc3)cs2)c1 [Example 30]
645	Cc1sc(C(=O)Nc2cc(Cl)cc(NS(C)(=O)=O)c2)cc1-c1cn(Cc2ccccc2)nn1 [Example 235]
627	CS(=O)(=O)Nc1cc(F)cc(NC(=O)c2cc(-c3ccccn3)cs2)c1 [Example 112, N-(3-fluoro-5-(methylsulfonamido)phenyl)-4-(pyridin-2-yl)thiophene-2-carboxamide]
308	CS(=O)(=O)Nc1cc(Cl)cc(NC(=O)c2cnn(-c3ncccc3OCc3ccccc3F)c2)c1 [Example 189]
200	CN(C)C(=O)c1cccnc1-c1csc(C(=O)Nc2cc(Cl)cc(NS(C)(=O)=O)c2)c1 [Example 222]
182	Cn1cc(C(=O)Nc2cc(Cl)cc(NS(C)(=O)=O)c2)cc1-c1ncc(F)cc1OCc1cnco1 [Example 268]
106	Cc1sc(C(=O)Nc2cc(Cl)cc(NS(C)(=O)=O)c2)cc1-c1cn(-c2ccccc2)nn1 [Example 236]
37	Cc1cc(C(=O)Nc2cc(Cl)cc(NS(C)(=O)=O)c2)cn1-c1ccc(N(C)C2CCOC2)cn1 (centres unmarked) [Example 269]
29.5	CCS(=O)(=O)Nc1cc(Cl)cc(NC(=O)c2cc(C)n(-c3ccc(N4CCOCC4)cn3)c2)c1 [Example 249]

same assay, conditions: Homo sapiens, HCT-116, circBRIP1, HCT116 cells; ^+ SyBr assay was used; read-out: DHX9 Cellular Target Engagement EC50

EC50 [nM]	Structure (SMILES)
340	CS(=O)(=O)Nc1cc(Cl)cc(NC(=O)c2cc(-c3ccc(F)cn3)n(CCO)c2)c1 [Example 689]
28.9	Cc1cc(C(=O)Nc2cc(Cl)cc(NS(C)(=O)=O)c2)cn1-c1ccc(N(C)C2CCOC2)cn1 (centres unmarked) [Example 674]
4520	Cn1cc(C(=O)Nc2cc(Cl)cc(NS(C)(=O)=O)c2)cc1-c1ncccc1Oc1cccnc1 [Example 655]
817	Cc1cc(C(=O)Nc2cc(Cl)cc(NS(C)(=O)=O)c2)cn1-c1ncc([S+](C)[O-])cn1 (centres unmarked) [Example 657]
2800	CS(=O)(=O)Nc1cc(Cl)cc(NC(=O)c2cnn(-c3ncccc3-c3cncc(F)c3)c2)c1 [Example 392]
1050	CS(=O)(=O)Nc1cc(Cl)cc(NC(=O)c2cc(C3CC3)n(-c3ncc(F)cn3)c2)c1 [Example 451]
370	CS(=O)(=O)Nc1cc(Cl)cc(NC(=O)c2cc(-n3cc(F)cn3)cs2)c1 [Example 440]
4990	CN1CCN(C(=O)c2cc(C(=O)Nc3cc(Cl)cc(NS(C)(=O)=O)c3)cn2-c2ccccn2)CC1 [Example 665]
128	Cn1cc(C(=O)Nc2cc(Cl)cc(NS(C)(=O)=O)c2)cc1-c1ccc(Cl)cn1 [Example 576]
> 10000	CS(=O)(=O)Nc1cc(Cl)cc(NC(=O)c2cc(C(=O)N3CCOCC3)n(-c3ccccn3)c2)c1 [Example 731]
201	CS(=O)(=O)Nc1cc(Cl)cc(NC(=O)c2cnn(-c3ccccc3COc3cncc(F)c3)c2)c1 [Example 428]
422	Cc1ncccc1-c1cc(F)cnc1-c1cc(C(=O)Nc2cc(Cl)cc(NS(C)(=O)=O)c2)sc1C [Example 608]
215	Cn1cc(C(=O)Nc2cc(Cl)cc(NS(C)(=O)=O)c2)cc1-c1ccc(F)cn1 [Example 575]

From patent publication US12162867B2, “Inhibitors of RNA helicase DHX9 and uses thereof” (ACCENT THERAPEUTICS, INC., priority 2022, dated 2024)
